Where two headings read alike, the source gives them in different places.
Experiments:
[1] = tested on: MCF-7 cells; test: In vitro cytotoxicity, MCF-7; format: cell-based; settings: Homo sapiens, MCF7, MCF-7 breast cancer cell line
Source text: (§1) Mammalian cell lines: MCF-7 cells (human breast cancer) cell line, A-549 (human Lung Carcinoma) and CHO-K1 cells (hamster ovary cancer) cell line were obtained from the American Type Culture Collection (ATCC, Rockville, MD). Fetal bovine serum, RPMI-1640, HEPES buffer solution, L-glutamine, gentamycin and 0.25% Trypsin-EDTA were purchased from Lonza (Belgium). All reagents and chemicals were of pharmaceutical pure grade. Non-carrier added Na^131I solution (pH = 7) was purchased from the Research and Production Facility, The Egyptian Atomic Energy Authority. Chemicals were purchased from Sigma Aldrich and Lonza. Monitoring of chemical reactions was done by using analytical TLC with Merck 60 F-254 silica-gel plates (Merck, Germany), and visualization was done with ultraviolet light.
(§2) Cytotoxicity study was performed at the Regional Centre for Mycology and Biotechnology (RCMB), Al-Azhar University. Mammalian cell lines: human breast cancer cell line (MCF-7 cells), human colon cancer cell line (HCT-116 cells), and human lung cancer cell line (A-549 cells) were obtained from VACSERA Tissue Culture Unit, Cairo, Egypt. The cells were propagated in Dulbecco’s modified Eagle’s medium supplemented with 10% heat-inactivated fetal bovine serum, 1% L-glutamine, HEPES buffer, and 50 μg/mL gentamycin. All cells were maintained at 37 °C in a humidified atmosphere with 5% CO2 and were subcultured two times a week. For the cytotoxicity assay, the cells were seeded in 96-well plate at a cell concentration of 1 × 10^4 cells per well in 100 μL of growth medium. Fresh medium containing different concentrations of the test sample was added after 24 h of seeding. Serial two-fold dilutions of the tested chemical compound were added to confluent cell monolayers dispensed into 96-well, flat-bottomed microtiter plates (Falcon, NJ, USA) using a multichannel pipette. The microtiter plates were incubated at 37 °C in a humidified incubator with 5% CO2 for a period of 48 h. Three wells were used for each concentration of the test sample. Control cells were incubated without test sample and with or without DMSO. The little percentage of DMSO present in the wells (maximal 0.1%) was found not to affect the experiment. After incubation of the cells for at 37 °C, various concentrations of sample were added, and the incubation was continued for 24 h, and viable cells yield was determined by a colorimetric method. In brief, after the end of the incubation period, media were aspirated, and the crystal violet solution (1%) was added to each well for at least 30 min. The stain was removed, and the plates were rinsed using tap water until all excess stain is removed. Glacial acetic acid (30%) was then added to all wells and mixed thoroughly, and then the absorbance of the plates was measured after gently shaken on a microplate reader, using a test wavelength of 490 nm. All results were corrected for background absorbance detected in wells without added stain. Treated samples were compared with the cell control in the absence of the tested compound. All experiments were carried out in triplicate. The cell cytotoxic effect of each tested compound was calculated. The optical density was measured with the microplate reader to determine the number of viable cells, and the percentage of […] was calculated as (1 − (ODt/ODc)) × 100% where ODt is the mean optical density of wells treated with the tested sample and ODc is the mean optical density of untreated cells. The relation between surviving cells and drug concentration is plotted to get the survival curve of each tumor cell line after treatment with the specified compound.

[2] = tested on: A-549 cells; test: In vitro cytotoxicity, A-549; format: cell-based; settings: Homo sapiens, A549; A-549 cell line
Source text: as §1, §2

[3] = tested on: CHO-K1 cells; test: In vitro cytotoxicity, CHO-K1; format: cell-based, hamster; settings: CHO-K1 ovarian cell line
Source text: as §1, §2

[4] = molecular target: T1, CDK4 enzyme (Homo sapiens, UniProt P11802); test: CDK4 enzyme inhibition assay; format: biochemical
T1 construct: purchased Reaction Biology Corp. (Kinase HotSpot service)
T1 sequence (P11802 whole entry): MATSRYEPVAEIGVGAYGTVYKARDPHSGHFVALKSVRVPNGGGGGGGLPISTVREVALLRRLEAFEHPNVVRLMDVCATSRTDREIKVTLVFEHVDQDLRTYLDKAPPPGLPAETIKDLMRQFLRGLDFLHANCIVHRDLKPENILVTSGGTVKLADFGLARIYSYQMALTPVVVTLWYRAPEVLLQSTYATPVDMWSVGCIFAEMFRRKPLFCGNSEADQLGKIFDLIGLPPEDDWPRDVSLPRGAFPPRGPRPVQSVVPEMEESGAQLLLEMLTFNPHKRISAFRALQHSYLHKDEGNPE
T1 sequence (P24385 whole entry partner): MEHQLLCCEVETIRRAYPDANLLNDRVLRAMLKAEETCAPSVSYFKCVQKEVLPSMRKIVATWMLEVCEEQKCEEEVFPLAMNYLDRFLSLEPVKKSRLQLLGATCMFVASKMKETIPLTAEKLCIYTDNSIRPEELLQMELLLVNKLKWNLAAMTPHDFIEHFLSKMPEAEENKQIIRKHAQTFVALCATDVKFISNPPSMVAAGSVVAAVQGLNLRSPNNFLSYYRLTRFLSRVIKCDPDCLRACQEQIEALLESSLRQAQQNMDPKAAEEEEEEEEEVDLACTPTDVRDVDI
Protocol: Reaction Biology Corp. Kinase HotSpotSM service (http://www.reactionbiology.com, accessed on 1 April 2019) was used for screening of tested compounds. CDK4 Kinase inhibitory activities were assessed by the HotSpot assay platform, which contained specific kinase/substrate pairs along with required cofactors. Base reaction buffer: 20 mM Hepes (pH 7.5), 10 mM MgCl2, 1 mM EGTA, 0.02% Brij35, 0.02 mg/mL BSA, 0.1 mM Na3VO4, 2 mM DTT, 1% DMSO. Testing compounds were dissolved in 100% DMSO to specific concentration. The serial dilution was conducted in DMSO. The reaction mixture containing the examined compound and 33P-ATP was incubated at room temperature for 2 h and radioactivity was detected by the filter-binding method. Kinase activity data were expressed as the percent remaining kinase activity in test samples compared to vehicle (dimethyl sulfoxide) reactions.
For CDK4 enzyme inhibition, CDK4 ELISA kit, Cloud-Clone Corp, US was used. This kit is used for the in vitro quantitative measurement of CDK4 concentrations in tissue homogenates, cell lysates and other biological fluids with high sensitivity and specificity. The cancer cells were treated with different amounts of each compound according to the aforementioned protocol. In addition, the cells were lysed and then treated as instructed by the manufacturer’s protocol. The absorbance of each well was detected at 450 nm using an ELISA plate reader. The results are reported as half maximal inhibitory concentration (IC50).

[5] = tested on: CDK4; settings: cited from earlier work
[6] = molecular target: CDK4; settings: cited from earlier work; remark: listed apart in the source
[7] = molecular target: CDK6; settings: cited from earlier work
[8] = N-aryl aminothiazoles, in vitro

SMILES	melting point	IC50 [1]	IC50 [2]	IC50 [3]	also measured
C/C(=N\NC(=S)Nc1ccccc1)c1cc2cc(Br)ccc2oc1=O [Compound 2b]	–	–	15 nM	54 nM	IC50 [4]: 36 nM
CC(=NN=C1SCC(=O)N1c1ccccc1)c1cc2cc(Br)ccc2oc1=O [Compound 3b]	–	116 nM	56 nM	127 nM	IC50 [4]: 127 nM
CC(=NN=c1scc(-c2ccc(Br)cc2)n1C)c1cc2cc(Br)ccc2oc1=O [Compound 5a, 6-Bromo-3-(1-((4-(4-bromophenyl)-3-methylthiazol-2(3H)-ylidene)hydrazono)ethyl)-2H-chromen-2-one]	–	102 nM	54 nM	75 nM	IC50 [4]: 142 nM
O=c1oc2ccc(Br)cc2cc1-c1csc(N/N=C/c2ccccc2)n1 [Compound 9a]	–	60 nM	34 nM	91 nM	IC50 [4]: 131 nM
O=c1oc2ccc(Br)cc2cc1-c1csc(NN=Cc2ccc([N+](=O)[O-])cc2)n1 [Compound 9d]	–	780 nM	513 nM	901 nM	–
Cc1ccc(C=NNc2nc(-c3cc4cc(Br)ccc4oc3=O)cs2)o1 [Compound 9h]	–	534 nM	340 nM	574 nM	–
O=c1oc2ccc(Br)cc2cc1-c1csc(NN=Cc2ccc([N+](=O)[O-])o2)n1 [Compound 9i]	–	124 nM	75 nM	189 nM	IC50 [4]: 193 nM
CN1CC[C@H](c2c(O)cc(O)c3c(=O)cc(-c4ccccc4Cl)oc23)[C@H](O)C1 [Flavopiridol, reference compound]	–	4.45 nM	1.14 nM	2.41 nM	–
CC(C)(C)c1cnc(CSc2cnc(Nc3ccc(S(=O)(=O)NCCO)cc3)s2)o1 [IX]	–	–	–	–	IC50 [5, 8]: 233 nM
CC(C)(CO)CNCc1ccc(Nc2ncc(SCc3ncc(C(C)(C)C)o3)s2)nc1 [VIII]	–	–	–	–	IC50 [5, 8]: 26 nM
CSc1nc(C)c(-c2ccnc(Nc3ccc(N4CCN(C)CC4)cn3)n2)s1 [VIIa]	–	–	–	–	Ki [6]: 7 nM; Ki [7]: 42 nM
CSc1nc(C)c(-c2nc(Nc3ccc(N4CCN(C)CC4)cn3)ncc2C#N)s1 [VIIb]	–	–	–	–	Ki [6]: 4 nM; Ki [7]: 30 nM
CSc1nc(C)c(-c2nc(Nc3ccc(N4CCN(C)CC4)cn3)ncc2F)s1 [VIIc]	–	–	–	–	Ki [6]: 2 nM; Ki [7]: 55 nM
c1cnc(Nc2ncc(-c3ccnc(OC4CCCCC4)n3)s2)nc1 [Va]	–	–	–	–	IC50 ([5]; 2-aminothiazoles of Banyu): 4.2 nM
Cc1cc(-c2cnc(Nc3ncccn3)s2)nc(OC2CCCCC2)n1 [Vb]	–	–	–	–	IC50 ([5]; 2-aminothiazoles of Banyu): 34 nM
Cc1cc(-c2cnc(Nc3nccc(CN4CCN(C)CC4)n3)s2)nc(OC2CCCCC2)n1 [Vc]	–	–	–	–	IC50 ([5]; 2-aminothiazoles of Banyu): 9.2 nM

Continued, in another order:

melting point	SMILES	IC50 [1]	IC50 [2]	IC50 [3]	also measured
220 °C	CNC(=S)NN=C(C)c1cc2cc(Br)ccc2oc1=O [Compound 2a]	161 nM	451 nM	604 nM	–
250 to 252 °C	CC(=NN=C1SCC(=O)N1C)c1cc2cc(Br)ccc2oc1=O [Compound 3a]	138 nM	560 nM	735 nM	–
200 °C	CC(=NN=c1scc(-c2ccccc2)n1C)c1cc2cc(Br)ccc2oc1=O [Compound 4a, 6-Bromo-3-(1-((3-methyl-4-phenylthiazol-2(3H)-ylidene)hydrazono)ethyl)-2H-chromen-2-one]	360 nM	537 nM	757 nM	–
234 °C	CC(=NN=c1scc(-c2ccccc2)n1-c1ccccc1)c1cc2cc(Br)ccc2oc1=O [Compound 4b, 6-Bromo-3-(1-((3,4-diphenylthiazol-2(3H)-ylidene)hydrazono)ethyl)-2H-chromen-2-one]	861 nM	784 nM	968 nM	–
229 °C	C/C(=N\N=c1/scc(-c2ccc(Br)cc2)n1-c1ccccc1)c1cc2cc(Br)ccc2oc1=O [Compound 5b, 6-Bromo-3-(1-((4-(4-bromophenyl)-3-phenylthiazol-2(3H)-ylidene)hydrazono)ethyl)-2H-chromen-2-one]	305 nM	305 nM	414 nM	–
280 °C	CC(=NN=C1SC(CC(=O)O)C(=O)N1C)c1cc2cc(Br)ccc2oc1=O (stereo not drawn) [Compound 6a, 2-(2-((1-(6-Bromo-2-oxo-2H-chromen-3-yl)ethylidene)hydrazono)-3-methyl-4-oxothiazolidin-5-yl)acetic acid]	55 nM	95 nM	131 nM	–
251 °C	CC(=NN=C1SC(CC(=O)O)C(=O)N1c1ccccc1)c1cc2cc(Br)ccc2oc1=O (stereo not drawn) [Compound 6b, 2-(2-((1-(6-Bromo-2-oxo-2H-chromen-3-yl)ethylidene)hydrazono)-4-oxo-3-phenylthiazolidin-5-yl)acetic acid]	55 nM	77 nM	101 nM	–
250 °C	Cc1ccc(C=NNc2nc(-c3cc4cc(Br)ccc4oc3=O)cs2)cc1 [Compound 9b]	295 nM	386 nM	522 nM	–
238 °C	COc1ccc(C=NNc2nc(-c3cc4cc(Br)ccc4oc3=O)cs2)cc1OC [Compound 9c]	479 nM	244 nM	649 nM	–
253 °C	CN(C)c1ccc(C=NNc2nc(-c3cc4cc(Br)ccc4oc3=O)cs2)cc1 [Compound 9e]	432 nM	242 nM	507 nM	–
278 °C	O=c1oc2ccc(Br)cc2cc1-c1csc(NN=Cc2ccc(F)cc2)n1 [Compound 9f]	276 nM	200 nM	495 nM	–
267 °C	O=c1oc2ccc(Br)cc2cc1-c1csc(NN=Cc2ccc(Br)cc2)n1 [Compound 9g]	488 nM	441 nM	744 nM	–
